Test results published in patent publication US20070276011A1, “Plasminogen Activator Inhibitor-1 Inhibitor” (priority 2003, published 2007).

The compounds below were run against recombinant human PAI-1 (Homo sapiens, UniProt P05121) (assay: PAI-1 inhibitory activity, Test Method A (tPA fluorogenic substrate, Tris buffer pH8.0, 37 C)). Settings: 25 μM test compound; Test Method A.
Type: biochemical

Sequence of recombinant human PAI-1 (P05121 24-402): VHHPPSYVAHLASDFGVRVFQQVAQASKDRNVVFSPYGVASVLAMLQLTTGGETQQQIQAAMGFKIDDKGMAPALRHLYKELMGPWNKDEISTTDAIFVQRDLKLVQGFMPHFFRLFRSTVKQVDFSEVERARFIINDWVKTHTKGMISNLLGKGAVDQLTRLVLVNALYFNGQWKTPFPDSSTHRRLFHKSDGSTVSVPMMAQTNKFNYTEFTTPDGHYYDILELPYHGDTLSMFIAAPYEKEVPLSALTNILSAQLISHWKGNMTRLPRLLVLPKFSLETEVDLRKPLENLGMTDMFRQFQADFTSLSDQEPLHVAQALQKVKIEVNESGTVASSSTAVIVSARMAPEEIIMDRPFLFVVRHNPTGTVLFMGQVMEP

Structure (SMILES)	Inhibitory Ratio at 25 μM (%)
COc1ccc(C=C2SC(=O)N(Cc3ccc(Cl)c(Cl)c3)C2=O)cc1F [compound 331, 5-(3-fluoro-4-methoxybenzylidene)-3-(3,4-dichlorobenzyl)-thiazolidine-2,4-dione]	35%
CCOC1=NN(c2ccc([N+](=O)[O-])cc2)C(=O)C1=Cc1c(O)cccc1O [compound 552]	95%
O=C(OCc1ccccc1)c1cc(C=C2SC(=O)N(Cc3ccc(Cl)c(Cl)c3)C2=O)cc(O)c1O [compound 463, 5-[3,4-Dihydroxy-5-(benzyloxycarbonyl)benzylidene]-3-(3,4-dichlorobenzyl)thiazolidine-2,4-dione]	>99%
O=C(Nc1cc(C=C2SC(=O)N(Cc3ccc(Cl)c(Cl)c3)C2=O)ccc1O)c1ccc(O)cc1 [compound 382]	97%
COC(=O)c1ccc(NC(=O)c2cc(C=C3SC(=O)N(Cc4ccc(Cl)c(Cl)c4)C3=O)ccc2O)cc1O [compound 437]	69%
CC(C)c1ccc(NC(=O)c2cc(C=C3SC(=O)N(Cc4ccc(Cl)c(Cl)c4)C3=O)ccc2O)c(Br)c1 [compound 472]	94%
CCOC1=NN(c2ccc([N+](=O)[O-])cc2)C(=O)C1=Cc1cc(C=Cc2ccc(Oc3ccccc3)cc2)ccc1O [Compound No. 565, 4 [2-Hydroxy-5-(4-phenoxystyryl)benzylidene]-1-(4-nitrophenyl)-3-ethoxy-2-pyrazolin-5-one]	>99%
CC(C)C1=NN(c2ccc([N+](=O)[O-])cc2)C(=O)C1=Cc1cc(C=Cc2ccccc2)ccc1O [compound 531, 4-(21-Hydroxy-5-styrylbenzylidene)-1-(4-nitrophenyl)-3-isopropyl-2-pyrazolin-5-one]	50%
COc1ccc(C=Cc2ccccc2)cc1C=C1C(=O)N(c2ccc(C(=O)O)cc2)N=C1C(C)C [compound 535]	75%
CC(C)C1=NN(c2ccc(Cl)c(Cl)c2)C(=O)C1=Cc1cc(C=Cc2ccc(Oc3ccccc3)cc2)ccc1O [Compound No. 566]	76%
O=C(Nc1cc(C(F)(F)F)ccc1Oc1ccc(O)cc1)c1cc(C=C2SC(=O)N(Cc3ccc(Cl)c(Cl)c3)C2=O)ccc1O [compound 422]	95%
O=C1SC(=Cc2c[nH]c3ccccc23)C(=O)N1Cc1ccc(Cl)c(Cl)c1 [compound 410, 5-(indol-3-ylmethylene)-3-(3,4-dichlorobenzyl)thiazolidine-2,4-dione]	36%
COc1ccc(C(F)(F)F)cc1NC(=O)c1cc(C=C2SC(=O)N(Cc3ccc(Cl)c(Cl)c3)C2=O)ccc1O [compound 468]	>99%
CCOC(=O)Oc1ccc(C=C2SC(=O)N(Cc3ccc(Cl)cc3Cl)C2=O)cc1OC(=O)OCC [compound 337]	43%
COc1cc(OC)c(OC)cc1C=C1C(=O)N(c2cc(Cl)cc(Cl)c2)N=C1C(C)C [compound 506]	50%
COc1ccc(NC(=O)c2cc(C=C3SC(=O)N(Cc4ccc(Cl)c(Cl)c4)C3=O)ccc2O)cc1OC [compound 351, 5-[4-Hydroxy-3-(3,4-dimethoxyphenylcarbamoyl)benzylidene]-3-(3,4-dichlorobenzyl)thiazolidine-2,4-dione]	54%
COc1ccc(O)c(C=C2C(=O)N(c3ccc(Cl)c(Cl)c3)N=C2C(C)C)c1 [compound 518, 4-(2-hydroxy-5-methoxybenzylidene)-1-(3,4-dichlorophenyl)-3-isopropyl-2-pyrazolin-5-one]	83%
COc1cc(C=C2SC(=O)N(Cc3ccc(Cl)c(Cl)c3)C2=O)cc(C(=O)Nc2ccccc2)c1O [compound 440]	82%
O=C1SC(=Cc2ccc(O)c(-c3ccc(O)c(O)c3)c2)C(=O)N1Cc1ccc(Cl)c(Cl)c1 [compound 445]	>99%
COc1ccc(-c2ccccc2)cc1NC(=O)c1cc(C=C2SC(=O)N(Cc3ccc(Cl)c(Cl)c3)C2=O)ccc1O [compound 455]	>99%
COC(=O)c1ccc(C(=O)n2cc(C=C3SC(=O)N(Cc4ccc(Cl)c(Cl)c4)C3=O)c3ccccc32)cc1 [compound 427]	85%
O=C(O)c1ccc(NC(=O)c2cc(C=C3SC(=O)N(Cc4ccc(Cl)c(Cl)c4)C3=O)ccc2O)cc1 [compound 419]	>99%
O=C(O)c1cc(C=C2SC(=O)N(Cc3ccc(Cl)c(Cl)c3)C2=O)cc(-c2ccccc2)c1O [compound 430]	87%

Same assay, conditions: test compound 25 μM; Test Method A

Structure (SMILES)	Inhibitory Ratio at 25 μM (%)
CC1=NN(c2cccc(C(F)(F)F)c2)C(=O)C1=Cc1ccc(O)c(O)c1 [compound 113]	68%
O=C1SC(=Cc2ccc(O)c(O)c2)C(=O)N1Cc1cccc(Oc2ccccc2)c1 [compound 17]	>99%
O=C1SC(=Cc2ccc(O)c(O)c2)C(=O)N1Cc1ccc(-c2ccccc2)cc1 [compound 21]	>99%
O=C1C(=Cc2ccc(O)c(O)c2)C(c2ccccc2)=NN1c1ccc(Cl)c(Cl)c1 [compound 221]	>99%
CC(C)C1=NN(c2cc(Cl)cc(Cl)c2)C(=O)C1=Cc1cccc(C(=O)O)c1 [compound 212]	82%
O=C1SC(=Cc2ccc(O)c(O)c2O)C(=O)N1Cc1ccc(Cl)c(Cl)c1 [compound 29]	68%
O=C1C(=Cc2ccc(O)c(O)c2)C(c2ccccc2)=NN1c1cc(Cl)cc(Cl)c1 [compound 129, 4-(3,4-Dihydroxybenzylidene)-1-(3,5-dichlorophenyl)-3-phenyl-2-pyrazolin-5-one]	>99%
CCOC1=NN(c2ccc([N+](=O)[O-])cc2)C(=O)C1=Cc1ccc(C)c(OC)c1 [compound 213]	40%
COc1cc(C=C2C(=O)N(c3cccc(C(=O)O)c3)N=C2C)cc(Br)c1OCC(=O)NCc1ccccc1 [compound 174]	62%
O=C(O)c1cccc(N2N=C(c3ccccc3)C(=Cc3ccc(Br)o3)C2=O)c1 [compound 215]	77%
O=C(O)c1cccc(N2N=C(C(F)(F)F)C(=Cc3ccc(-c4cc(Cl)cc(Cl)c4)o3)C2=O)c1 [compound 176]	65%
CC1=NN(c2ccc(Cl)c(C(=O)O)c2)C(=O)C1=Cc1ccc(-c2cccc(F)c2)o1 [compound 192]	44%
O=C1SC(=Cc2cccc(O)c2O)C(=O)N1Cc1cc(Br)cc(Br)c1 [compound 47]	>99%
CCOC1=NN(c2ccc([N+](=O)[O-])cc2)C(=O)C1=Cc1ccc(O)c(O)c1O [compound 155]	39%
COC(=O)c1cccc(N2N=C(C(C)C)C(=Cc3cc(Br)cc(Br)c3O)C2=O)c1 [compound 108, 4-(3,5-Dibromo-2-hydroxybenzylidene)-1-[3-(Methoxycarbonyl)phenyl]-3-isopropyl-2-pyrazolin-5-one]	27%
O=C1SC(=Cc2cc(Br)cc(Br)c2O)C(=O)N1Cc1cc(C(F)(F)F)cc(C(F)(F)F)c1 [compound 2, 5-(3,5-Dibromo-2-hydroxybenzylidene)-3-[3,5-bis(trifluoromethyl)benzyl]-thiazolidine-2,4-dione]	52%
O=C1C(=Cc2ccc(O)c(O)c2)SC(=S)N1c1ccc(O)c(O)c1 [compound 77, 5-(3,4-Dihydroxybenzylidene)-3-(3,4-dihydroxyphenyl)rhodanine]	20%
